Reference: patent US20210255193A1, “LYSINE REACTIVE PROBES AND USES THEREOF” (The Scripps Research Institute, priority 2017, published 2021)

Assays:
[1] = target: T1, HDHD3 Haloacid dehalogenase-like hydrolase domain-containing protein 3 (Homo sapiens, UniProt Q9BSH5); experiment: competitive isoTOP-ABPP; assay type: binding; set-up: key to isoTOP-ABPP reactivity ratio at lysine Q9BSH5_K15: R = MS1 peak area ratio, DMSO (heavy) / compound-treated (light); details: 50 uM, in vitro; for R value (DMSO/fragment) for probe 1 labeling: Q9BSH5_K15; for R value (DMSO/fragment) for probe 1 labeling / isoTOP-ABPP reactivity ratio at lysine Q9BSH5_K15: 231 sol; for isoTOP-ABPP ratio (R) at liganded lysine Q9BSH5_K15: sol, 231
T1 construct: isoTOP-ABPP experiments performed in cell lysates (in vitro); endogenous in cells; host or cells: soluble proteome of human cancer cell lines (MDA-MB-231; Ramos and Jurkat also prepared)
T1 sequence (Q9BSH5 1-251): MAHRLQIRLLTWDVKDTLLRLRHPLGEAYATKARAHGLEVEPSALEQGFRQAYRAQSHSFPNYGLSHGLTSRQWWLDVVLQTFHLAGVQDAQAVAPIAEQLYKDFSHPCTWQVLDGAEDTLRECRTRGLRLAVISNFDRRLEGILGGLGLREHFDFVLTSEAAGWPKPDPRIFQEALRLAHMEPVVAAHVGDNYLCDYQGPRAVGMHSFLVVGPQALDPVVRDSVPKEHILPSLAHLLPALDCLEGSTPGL
Description: (§1) In vitro covalent fragment treatment for isoTOP-ABPP. All compounds were made up as solutions in DMSO (100×) and were used at a final concentration of 50 μM for activated esters and 100 μM for guanidinylating agents. For each profiling sample, 0.5 ml of lysate was treated with 5 μl of the 100× compound stock solution or 5 μl of DMSO. Samples were treated with activated esters for
(§2) STP-alkyne labeling and click chemistry. For concentration-dependent reactivity measurements by isoTOP-ABPP, 0.5 ml proteome aliquots were treated at ambient temperature with 1 mM STP-alkyne 1 (5 μl of 100 mM stock in DMSO) and 0.1 mM STP alkyne 1 (5 μl of 10 mM stock in DMSO), respectively. For competitive isoTOP-ABPP, after in vitro fragment treatment (detailed above), the samples were labeled for 1 h at ambient temperature with 0.1 mM STP-alkyne 1 (5 μl of 10 mM stock in DMSO). Samples were conjugated by copper-mediated azide-alkyne cycloaddition (CuAAC) to either the light (1 mM STP-alkyne or fragment treated) or heavy (0.1 mM STP-alkyne or DMSO treated) TEV tags (10 μl of 5 mM stocks in DMSO, final concentration=100 μM) using tris(2-carboxyethyl)phosphine hydrochloride
(§3) R value calculation and processing. The ratios of light and heavy MS1 peaks for each unique peptide were quantified with a CIMAGE software using default parameters (3 MS1 acquisitions per peak and signal to noise threshold set to 2.5). For reactivity measurements by isoTOP-ABPP, the R value was calculated from the ratio of MS1 peak areas, comparing the 1 mM STP alkyne sample (light TEV tag) with the 0.1 mM STP alkyne sample (heavy TEV tag). For competitive isoTOP-ABPP, the R value was calculated from the ratio of MS1 peak areas, comparing the DMSO treated sample (heavy TEV tag) with the compound treated sample (light TEV tag). […] Ratios for unique peptide entries are calculated for each experiment; overlapping peptides with the same modified lysine (for example, different charge states, MudPIT chromatographic steps or tryptic termini) are grouped together and the median ratio is reported as the final ratio (R). The peptide ratios reported by CIMAGE were further filtered to ensure the removal or correction of low-quality ratios in each individual data set. The quality filters applied were the following: removal of half tryptic peptides; for ratios with high standard deviations from the median (90% of the median or above) the lowest ratio was taken instead of the median; removal of peptides with R=20 and only a single MS2 event triggered during the elution of the parent ion; manual annotation of all the peptides with ratios of 20, removing any peptides with low quality elution profiles that remained after the previous curation steps (only done for competitive isoTOP-ABPP).
(§4) Cross-data processing for fragment screening. For compound treated samples, biological replicates of the same condition were averaged, if the standard deviation was below 60% of the mean; otherwise, for lysines with at least one R value <4 for a particular compound, the lowest value of the ratio set was taken. For lysines, where all R values for a particular compound were ≥4, the average was reported. For peptides containing several possible modified lysines, the lysine with the highest number of quantification events was used for analysis and the remaining, redundant peptides were reported as alternative modification sites. Peptides included in the aggregate dataset (those used for further bioinformatics and statistical analyses) were required to have been quantified in 2 experiments for competitive isoTOP-ABPP. Lysines were categorized as liganded, if they had at least one ratio R≥4 (hit fragments). For liganded lysines with R=20 for all liganding events, lysines were required to have been quantified with R=20 in two separate experiments and were further required to have been quantified with R<20 in one additional experiment.

[2] = target: T2, PFKP 6-phosphofructokinase type C (Homo sapiens, UniProt Q01813); experiment: competitive isoTOP-ABPP; assay type: binding; set-up: key to isoTOP-ABPP reactivity ratio at lysine Q01813_K688: R = MS1 peak area ratio, DMSO (heavy) / compound-treated (light); details: for R value (DMSO/fragment) for probe 1 labeling: Q01813_K688; for R value (DMSO/fragment) for probe 1 labeling / isoTOP-ABPP reactivity ratio at lysine Q01813_K688 / isoTOP-ABPP ratio (R) at liganded lysine Q01813_K688: 50 uM, in vitro; for R value (DMSO/fragment) for probe 1 labeling / isoTOP-ABPP reactivity ratio at lysine Q01813_K688: 231 sol; for isoTOP-ABPP ratio (R) at liganded lysine Q01813_K688: sol, 231
T2 construct: isoTOP-ABPP experiments performed in cell lysates (in vitro); endogenous in cells
T2 sequence (Q01813 1-784): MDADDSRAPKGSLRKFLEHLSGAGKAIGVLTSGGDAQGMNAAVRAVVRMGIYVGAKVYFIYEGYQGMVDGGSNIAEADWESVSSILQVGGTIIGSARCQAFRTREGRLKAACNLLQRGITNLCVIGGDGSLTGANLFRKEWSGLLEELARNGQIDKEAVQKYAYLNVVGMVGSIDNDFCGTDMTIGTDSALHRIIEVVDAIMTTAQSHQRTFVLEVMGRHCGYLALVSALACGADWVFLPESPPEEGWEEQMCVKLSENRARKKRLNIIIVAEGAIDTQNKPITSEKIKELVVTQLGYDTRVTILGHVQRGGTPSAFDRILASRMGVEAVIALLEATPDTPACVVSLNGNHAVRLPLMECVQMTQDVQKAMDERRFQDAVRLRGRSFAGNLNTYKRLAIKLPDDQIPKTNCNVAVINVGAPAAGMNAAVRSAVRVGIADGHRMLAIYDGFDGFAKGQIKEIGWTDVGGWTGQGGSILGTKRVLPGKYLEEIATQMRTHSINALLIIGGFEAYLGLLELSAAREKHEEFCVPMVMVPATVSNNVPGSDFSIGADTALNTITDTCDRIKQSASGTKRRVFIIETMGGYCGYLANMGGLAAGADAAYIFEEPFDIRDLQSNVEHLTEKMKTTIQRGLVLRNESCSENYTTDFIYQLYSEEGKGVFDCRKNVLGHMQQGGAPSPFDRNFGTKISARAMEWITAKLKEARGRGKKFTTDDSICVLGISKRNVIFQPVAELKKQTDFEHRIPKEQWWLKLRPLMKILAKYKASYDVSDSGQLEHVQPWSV
Description: as §1, §2, §3, §4

With O=C(CCc1cn(-c2ccccc2)nc1-c1ccccc1)Oc1c(F)c(F)c(F)c(F)c1F [fragment 19, Pentafluorophenyl 3-(1,3-diphenyl-1H-pyrazol-4-yl)propanoate] the “R value (DMSO/fragment) for probe 1 labeling” value (“R value (DMSO/fragment)” below) [1] was 20.0 and the “R value (DMSO/fragment)” value [2] was 1.5.

O=C(Oc1c(F)c(F)c(F)c(F)c1F)C(c1ccccc1)c1ccccc1 [fragment 20, Pentafluorophenyl 2,2-diphenylacetate] was tested, and the “R value (DMSO/fragment)” value [1] was 1.1, the “blockade of probe 1 labeling of K688” value ([2]; PFKP K688) was “completely blocked” and the “R value (DMSO/fragment)” value [2] was 20.0.

O=C(Oc1c(F)c(F)c(F)c(F)c1F)c1cc(C(F)(F)F)cc(C(F)(F)F)c1 [fragment 21, Pentafluorophenyl 3,5-bis(trifluoromethyl)benzoate] was tested, and the “R value (DMSO/fragment)” value [1] was 1.0 and the “R value (DMSO/fragment)” value [2] was 1.1.

Cn1cc(CC(=O)Oc2c(F)c(F)c(F)c(F)c2F)c2ccccc21 [fragment 22, Pentafluorophenyl 2-(1-methyl-1H-indol-3-yl)acetate] was tested, and the “R value (DMSO/fragment)” value [1] was 1.1 and the “R value (DMSO/fragment)” value [2] was 2.0.

With COc1cc(CCC(=O)Oc2c(F)c(F)c(F)c(F)c2F)cc(OC)c1OC [fragment 23, Pentafluorophenyl 3-(3,4,5-trimethoxyphenyl)propanoate] the “R value (DMSO/fragment)” value [1] was 1.3 and the “R value (DMSO/fragment)” value [2] was 2.1.

With O=C(Oc1c(F)c(F)c(F)c(F)c1F)C1CCN(C(=O)OCc2ccccc2)CC1 [fragment 24, 1-Benzyl 4-(pentafluorophenyl) piperidine-1,4-dicarboxylate] the “isoTOP-ABPP reactivity ratio at lysine Q9BSH5_K15” value [1] was 2.3 and the “isoTOP-ABPP reactivity ratio at lysine Q01813_K688” value [2] was 2.5.

In the case of O=C(Oc1c(F)c(F)c(F)c(F)c1F)c1ccc2ccccc2n1 [fragment 25, Pentafluorophenyl quinoline-2-carboxylate], the “isoTOP-ABPP reactivity ratio at lysine Q9BSH5_K15” value [1] is reported as 4.0 and the “isoTOP-ABPP reactivity ratio at lysine Q01813_K688” value [2] is reported as 15.6.

In the case of O=C(CCc1coc2cc(F)ccc2c1=O)Oc1c(F)c(F)c(F)c(F)c1F [fragment 26, Pentafluorophenyl 3-(7-fluoro-4-oxo-4H-chromen-3-yl)propanoate], the “isoTOP-ABPP reactivity ratio at lysine Q9BSH5_K15” value [1] is reported as 3.4 and the “isoTOP-ABPP reactivity ratio at lysine Q01813_K688” value [2] is reported as 6.4.

With O=C(CN1C(=O)c2ccccc2C1=O)Oc1c(F)c(F)c(F)c(F)c1F [fragment 27, Pentafluorophenyl 2-(1,3-dioxoisoindolin-2-yl)acetate] the “isoTOP-ABPP reactivity ratio at lysine Q9BSH5_K15” value [1] was 2.3 and the “isoTOP-ABPP reactivity ratio at lysine Q01813_K688” value [2] was 20.0.

For CCn1cc(C(=O)Oc2c(F)c(F)c(F)c(F)c2F)c(=O)c2ccc(C)nc21 [fragment 28, Pentafluorophenyl 1-ethyl-7-methyl-4-oxo-1,4-dihydro-1,8-naphthyridine-3-carboxylate], the “isoTOP-ABPP reactivity ratio at lysine Q9BSH5_K15” value [1] was 13.8 and the “isoTOP-ABPP reactivity ratio at lysine Q01813_K688” value [2] was 1.3.

In the case of O=C(CCc1cn(-c2ccccc2)nc1-c1ccccc1)Oc1ccc([N+](=O)[O-])cc1[N+](=O)[O-] [fragment 29, 2,4-Dinitrophenyl 3-(1,3-diphenyl-1H-pyrazol-4-yl)propanoate], the “isoTOP-ABPP reactivity ratio at lysine Q9BSH5_K15” value [1] is reported as 20.0 and the “isoTOP-ABPP reactivity ratio at lysine Q01813_K688” value [2] is reported as 12.8.

O=C(Oc1ccc([N+](=O)[O-])cc1[N+](=O)[O-])C(c1ccccc1)c1ccccc1 [fragment 30, 2,4-Dinitrophenyl 2,2-diphenylacetate] was tested, and the “isoTOP-ABPP reactivity ratio at lysine Q9BSH5_K15” value [1] was 20.0 and the “isoTOP-ABPP reactivity ratio at lysine Q01813_K688” value [2] was 20.0.

In the case of O=C(Oc1ccc([N+](=O)[O-])cc1[N+](=O)[O-])c1cc(C(F)(F)F)cc(C(F)(F)F)c1 [fragment 31, 2,4-Dinitrophenyl 3,5-bis(trifluoromethyl)benzoate], the “isoTOP-ABPP reactivity ratio at lysine Q9BSH5_K15” value [1] is reported as 4.6 and the “isoTOP-ABPP reactivity ratio at lysine Q01813_K688” value [2] is reported as 2.3.

With Cn1cc(CC(=O)Oc2ccc([N+](=O)[O-])cc2[N+](=O)[O-])c2ccccc21 [fragment 32, 2,4-Dinitrophenyl 2-(1-methyl-1H-indol-3-yl)acetate] the “isoTOP-ABPP reactivity ratio at lysine Q9BSH5_K15” value [1] was 6.7 and the “isoTOP-ABPP reactivity ratio at lysine Q01813_K688” value [2] was 12.6.

In the case of COc1cc(CCC(=O)Oc2ccc([N+](=O)[O-])cc2[N+](=O)[O-])cc(OC)c1OC [fragment 33, 2,4-Dinitrophenyl 3-(3,4,5-trimethoxyphenyl)propanoate], the “isoTOP-ABPP reactivity ratio at lysine Q9BSH5_K15” value [1] is reported as 1.5 and the “isoTOP-ABPP reactivity ratio at lysine Q01813_K688” value [2] is reported as 20.0.

O=C(Oc1ccc([N+](=O)[O-])cc1[N+](=O)[O-])C1CCN(C(=O)OCc2ccccc2)CC1 [fragment 34, 1-Benzyl 4-(2,4-dinitrophenyl) piperidine-1,4-dicarboxylate] was tested, and the “isoTOP-ABPP ratio (R) at liganded lysine Q9BSH5_K15” value [1] was 4.1 and the “isoTOP-ABPP ratio (R) at liganded lysine Q01813_K688” value [2] was 1.9.

With O=C(Oc1ccc([N+](=O)[O-])cc1[N+](=O)[O-])c1ccc2ccccc2n1 [fragment 35, 2,4-Dinitrophenyl quinoline-2-carboxylate] the “isoTOP-ABPP ratio (R) at liganded lysine Q9BSH5_K15” value [1] was 7.0 and the “isoTOP-ABPP ratio (R) at liganded lysine Q01813_K688” value [2] was 3.3.

In the case of O=C(CCc1coc2cc(F)ccc2c1=O)Oc1ccc([N+](=O)[O-])cc1[N+](=O)[O-] [fragment 36, 2,4-Dinitrophenyl 3-(7-fluoro-4-oxo-4H-chromen-3-yl)propanoate], the “isoTOP-ABPP ratio (R) at liganded lysine Q9BSH5_K15” value [1] is reported as 10.4 and the “isoTOP-ABPP ratio (R) at liganded lysine Q01813_K688” value [2] is reported as 20.0.

With O=C(Oc1ccc([N+](=O)[O-])cc1[N+](=O)[O-])c1ccc(-c2ccccc2)cc1 [fragment 37, 2,4-Dinitrophenyl [1,1′-biphenyl]-4-carboxylate] the “isoTOP-ABPP ratio (R) at liganded lysine Q9BSH5_K15” value [1] was 4.3 and the “isoTOP-ABPP ratio (R) at liganded lysine Q01813_K688” value [2] was 1.0.

For O=C(CC12CC3CC(CC(C3)C1)C2)Oc1ccc([N+](=O)[O-])cc1[N+](=O)[O-] [fragment 38, 2,4-Dinitrophenyl 2-(adamantan-1-yl)acetate], the “isoTOP-ABPP ratio (R) at liganded lysine Q9BSH5_K15” value [1] was 1.2 and the “isoTOP-ABPP ratio (R) at liganded lysine Q01813_K688” value [2] was 4.1.
